Literature values, collected in publication PMC7044277 (Nature Communications, 2020).
Entries after “also recorded” stand apart in the source; their conditions may differ. Where two headings read alike, the source gives them in different places.

Molecular target: DRD2 F1103.28A (Homo sapiens, UniProt P14416, F110A)
Details: cited from earlier work

DRD2 F1103.28A, sequence (P14416 whole entry F110A): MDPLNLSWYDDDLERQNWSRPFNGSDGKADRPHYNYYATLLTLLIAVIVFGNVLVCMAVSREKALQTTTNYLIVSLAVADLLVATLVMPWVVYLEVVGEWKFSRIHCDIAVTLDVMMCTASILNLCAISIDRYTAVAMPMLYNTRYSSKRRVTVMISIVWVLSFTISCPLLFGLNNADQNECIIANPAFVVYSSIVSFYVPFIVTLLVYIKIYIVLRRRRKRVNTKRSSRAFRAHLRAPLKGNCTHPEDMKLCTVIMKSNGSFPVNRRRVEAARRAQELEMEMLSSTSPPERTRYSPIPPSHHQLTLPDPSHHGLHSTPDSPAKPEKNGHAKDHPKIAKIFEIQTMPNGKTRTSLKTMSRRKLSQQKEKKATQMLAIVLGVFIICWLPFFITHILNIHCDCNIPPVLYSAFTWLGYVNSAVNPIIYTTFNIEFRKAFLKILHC

SMILES	effect of Phe110^3.28Ala mutation on binding	effect of Phe110^3.28Ala mutation on binding (previous published studies)
CNc1cc(OC)c(C(=O)NC2CCN(Cc3ccccc3)C2C)cc1Cl (centres unmarked) [nemonapride]	did not enhance the binding; also recorded: didn’t enhance the binding	–
Cc1nc2n(c(=O)c1CCN1CCC(c3noc4cc(F)ccc34)CC1)CCCC2 [risperidone]	–	did not enhance the binding; also recorded: didn’t enhance the binding
